Results taken from patent US9328118B2, “Nitrogen-containing bicyclic aromatic heterocyclic compound” (ASTELLAS PHARMA INC., priority 2012, dated 2016).
Structures can show the parent of a compound that is named as a salt. Where two headings read alike, the source gives them in different places.

Legend:
human cathepsin S = human cathepsin S (Homo sapiens (Human), UniProt P25774); assay: In vitro human cathepsin S inhibitory activity (VVR-AMC fluorescence); assay type: biochemical; conditions: human cathepsin S enzyme, substrate VVR-AMC 40 μM, pH 4.5, 37° C.; read-out: IC50 value of the human cathepsin S inhibitory activity (Data 1)
Sequence of human cathepsin S (P25774 115-331): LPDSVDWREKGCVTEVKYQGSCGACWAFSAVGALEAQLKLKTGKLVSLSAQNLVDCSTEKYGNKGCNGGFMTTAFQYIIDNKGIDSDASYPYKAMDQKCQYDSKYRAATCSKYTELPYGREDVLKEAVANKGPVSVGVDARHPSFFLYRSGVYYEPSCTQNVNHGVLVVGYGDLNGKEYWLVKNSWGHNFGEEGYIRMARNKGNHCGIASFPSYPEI
Protocol: Test Example 1 Measurement of a In Vitro Human Cathepsin S Inhibitory Activity
5 μL of a human cathepsin S enzyme (R&D1183-CY-010) was added to a 96-well plate so as to be 20 ng/well. […] A reaction rate at the time of not adding an enzyme in which the test compound was not added and a reaction rate at the time of adding an enzyme in which the test compound was not added were set to 100% inhibition and 0% inhibition, respectively, then, an inhibition rate at each concentration was determined, and IC50 values were calculated by a linear regression method. In the Table, Ex represents Example compound No., and Data 1 represents an IC50 value (nM) of the human cathepsin S inhibitory activity.

[1] = system: MHC class II expression in B220 positive B cells of mouse spleen cells; assay: In vitro MHC class II expression inhibitory effect using mouse spleen cells (LPS-stimulated B cells, flow cytometry); assay type: cell-based, C57BL/6 mice; conditions: B-cell, read-out: IC50 value of MHC class II expression inhibition (Data 2)
Protocol: Test Example 2 Evaluation of In Vitro MHC Class II Expression Inhibitory Effect Using Mouse Spleen Cells (Cell Evaluation System)
In antigen-presenting cells, the inhibition of cathepsin S inhibits the expression of MHC class II molecules. […] For an increased expression of MI-IC class II in B cells, the inhibitory effect of the compound represented by formula (I) was examined.
First, spleen cells collected from C57BL/6 mice were seeded in a 96-well plate so as to be a 1×10^5 cells/well, then, 5-fold dilution of 10 mM DMSO solution of the test compound was serially performed with RPMI 1640 medium (including 10% fetal bovine serum (FCS), 5×10^−5 M 2-mercaptoethanol, 50 IU/mL penicillin and 50 μg/mL streptomycin) nine times such that the final concentration becomes 0.026 nM to 10 μM, and the resultant products were added thereto (the final DMSO concentration was 0.1%). At the same time, LPS (Sigma L4005) was added to the wells such that the final concentration becomes 2 μg/mL, and culture was performed at 37° C. for 48 hours in 5% CO2. After culturing, the cells were stained at 4° C. for 20 minutes with PE-labeled streptavidin (BD BIOSCIENCE 554061) and biotin-labeled YAe antibody (EBIOSCIENCE 13-5741-85) together with FITC-labeled anti-mouse B220 antibody (BD BIOSCIENCE 553088), and an expression level (fluorescence intensity of YAe-biotin/streptavidin-PE) of MHC class II to which Ea peptide in B220 positive B cells was bonded was measured using a flow cytometry system (Guava EasyCyte Plus System, manufactured by Millipore Corporation). A value at the time of unstimulation of LPS in which the test compound was not added and a value at the time of stimulation of LPS in which the test compound was not added were set to 100% inhibition and 0% inhibition, respectively, then, an inhibition rate at each concentration was determined, and IC50 values were calculated by a linear regression method. In the Table, Ex represents Example compound No., and Data 2 represents an IC50 value (nM).

[2] = system: MHC class II expression in peripheral blood B cells; assay: Ex vivo MHC class II expression inhibitory effect using mouse peripheral blood after oral administration; assay type: in vivo, C57BL/6 mice; conditions: oral 0.3 mg/kg, blood collected after 3 hours, LPS 15 hours
Protocol: Test Example 3 Evaluation of Ex Vivo MHC Class II Expression Inhibitory Effect Using Mouse Peripheral Blood
The expression inhibitory effect of MHC class II molecules was evaluated in an ex vivo system.
The test compound was orally administered into C57BL/6mice, and the inhibitory effect with respect to the increased expression of MHC class II in B cells in peripheral blood after oral administration was examined. That is, 10 mL/kg of the test compound dissolved in a vehicle (30% propylene glycol solvent (propylene glycol:cured castor oil (HCO40):Tween 80=4:2:1)/HCl (2 equivalents with respect to the test compound)/water) was orally administered (dose: 0.1 mg/kg, 0.3 mg/kg, 1 mg/kg, or 3 mg/kg) to a C57BL/6mice, and the peripheral blood was collected after 3 hours. 10 μL of RPMI 1640 medium (including 5×10^−5 M of 2-mercaptoethanol, 50 IU/mL of penicillin, and 50 μg/mL of streptomycin) or 10 μL of LPS adjusted with the medium such that the final concentration becomes 100 μg/mL was added to 90 μL of the peripheral blood, and culture was performed at 37° C. for 15 hours in 5% CO2. After culturing, the cells were stained at 4° C. for 30 minutes with FITC-labeled anti-mouse I-A/I-E antibody (BD BIOSCIENCE 553623) and PE-labeled B220 antibody (BD BIOSCIENCE 553090), and hemolysis and fixation were performed at 37° C. for 10 minutes using a buffer (BD BIOSCIENCE Phosflow Lyse/Fix Buffer 558049). After washing, using a flow cytometry system (FACSCanto II, manufactured by BD BIOSCIENCE), an expression level of MHC class II on a B220 positive B cell surface was measured by using a fluorescence intensity of FITC (hereinafter, referred to as MFI) as an indicator. The difference between a MFI at the time of stimulation of LPS and a MFI at the time of unstimulation of LPS was set to a ΔMFI, a ΔMFI of a mouse in which 10 mL/kg of only vehicle was administered was set to 1, and the inhibition rate of ΔMFI by the test compound administration was calculated.

[3] = C57BL/6 spleen cells, LPS 2 μg/mL, 48 hours, B220 positive B cells

Structure (SMILES)	IC50 [1, 3] [nM]	other results
CN(C)C(=O)CN1CCC(CCOc2ccc(-c3nc(C#N)nc4c3ccn4C)cc2C(F)(F)F)CC1 [Example 3, 2-(4-{2-[4-(2-cyano-7-methyl-7H-pyrrolo[2,3-d]pyrimidin-4-yl)-2-(trifluoromethyl)phenoxy]ethyl}piperidin-1-yl)-N,N-dimethylacetamide]	1	IC50 (human cathepsin S): 2.6 nM
CN1CCC[C@H]1C(=O)N1CCC(CCOc2ccc(-c3nc(C#N)nc4c3ccn4CC3CCCO3)cc2C(F)(F)F)CC1 (stereo partly drawn) [Example 15, 4-[4-{2-[1-(1-methyl-L-prolyl)piperidin-4-yl]ethoxy}-3-(trifluoromethyl)phenyl]-7-(tetrahydrofuran-2-ylmethyl)-7H-pyrrolo[2,3-d]pyrimidine-2-carbonitrile monohydrochloride]	2.1	IC50 (human cathepsin S): 3.4 nM
CN(C)C(=O)CN1CCC(CCOc2ccc(-c3nc(C#N)nc4c3ccn4CCO)cc2C(F)(F)F)CC1 [Example 21]	1	–
N#Cc1nc(-c2ccc(OCCC3CCNCC3)c(C(F)(F)F)c2)c2ccn(CC3CCOC3)c2n1 (stereo not drawn) [Example 23]	3	–
CCN1CCC(CCOc2ncc(-c3nc(C#N)nc4c3ccn4C)cc2C(F)(F)F)CC1 [Example 27]	1.3	–
CN1CCC[C@H]1C(=O)N1CCC(CCOc2ccc(-c3nc(C#N)nc4c3ccn4CC3CCOC3)cc2C(F)(F)F)CC1 (stereo partly drawn) [Example 30]	0.97	–
CN1CCC[C@H]1C(=O)N1CCC(CCOc2ncc(-c3nc(C#N)nc4c3ccn4C)cc2C(F)(F)F)CC1 [Example 41]	1.1	–
CN1CCC(NC(=O)Cn2ccc3c(-c4ccc(OCCC5CCOCC5)c(C(F)(F)F)c4)nc(C#N)nc32)CC1 [Example 47]	–	IC50 (human cathepsin S): 2.1 nM; IC50 ([1]; 48 h): 2 nM
CCN1CCC(CCOc2ncc(-c3nc(C#N)nc4c3ccn4CC3CCOC3)cc2C(F)(F)F)CC1 (stereo not drawn) [Example 52]	1.8	–
CCN1CCC(CCOc2ccc(-c3nc(C#N)nc4c3ccn4CC3CCOC3)cc2C(F)(F)F)CC1 (stereo not drawn) [Example 54]	0.94	–
N#Cc1nc(-c2ccc(OCCC3CCNCC3)c(C(F)(F)F)c2)c2ccn(CC3CCCO3)c2n1 (stereo not drawn) [Example 58]	2	–
CN(C)C(=O)CN1CCC(CCOc2ccc(-c3nc(C#N)nc4c3ccn4CC3CCOC3)cc2C(F)(F)F)CC1 (stereo not drawn) [Example 66]	2.1	–
CCN1CCC(CCOc2ncc(-c3nc(C#N)nc4c3ncn4CC3CCOC3)cc2C(F)(F)F)CC1 (stereo not drawn) [Example 71]	1.3	–
CN1CCC[C@H]1C(=O)N1CCC(CCOc2ccc(-c3nc(C#N)nc4c3ncn4CC3CCOC3)cc2C(F)(F)F)CC1 (stereo partly drawn) [Example 77]	1.5	IC50 (human cathepsin S): 2.7 nM
CN1CCC[C@H]1C(=O)N1CCC(CCOc2ncc(-c3nc(C#N)nc4c3ncn4CC3CCOC3)cc2C(F)(F)F)CC1 (stereo partly drawn) [Example 79]	2.5	–
CCN1CCC(CCOc2ccc(-c3nc(C#N)nc4c3ccn4CC3CCCO3)cc2C(F)(F)F)CC1 (stereo not drawn) [Example 88]	2.3	–
CN1CCC[C@H]1C(=O)N1CCC(COc2ccc(-c3nc(C#N)nc4c3ccn4CC3CCOC3)cc2C(F)(F)F)CC1 (stereo partly drawn) [Example 105]	0.91	–
CCN1CCC(COc2ccc(-c3nc(C#N)nc4c3ccn4CC3CCOC3)cc2C(F)(F)F)CC1 (stereo not drawn) [Example 106]	3.2	–
CCN1CCC(CCOc2ccc(-c3nc(C#N)nc4c3ccn4CCO)cc2C(F)(F)F)CC1 [Example 110]	0.91	–
Cn1ccc2c(-c3cnc(OCCC4CCNCC4)c(C(F)(F)F)c3)nc(C#N)nc21 [Example 116]	1.8	–
Cn1cnc2c(-c3ccc(OCCC4CCN(CC(=O)N5CCC(C#N)CC5)CC4)c(C(F)(F)F)c3)nc(C#N)nc21 [Example 120]	1	–

The next lines start with results.

IC50 [1, 3] [nM]	Structure (SMILES)	other results
0.69	CN1CCC[C@@H]1C(=O)N1CCC(CCOc2ccc(-c3nc(C#N)nc4c3ncn4C)cc2C(F)(F)F)CC1 [Example 6, 9-methyl-6-[4-{2-[1-(1-methyl-D-prolyl)piperidin-4-yl]ethoxy}-3-(trifluoromethyl)phenyl]-9H-purine-2-carbonitrile]	IC50 (human cathepsin S): 3.4 nM
0.7	Cn1cnc2c(-c3ccc(OCCC4CCNCC4)c(C(F)(F)F)c3)nc(C#N)nc21 [Example 19]	–
0.8	Cn1cnc2c(-c3ccc(OCCC4CCN(CCO)CC4)c(C(F)(F)F)c3)nc(C#N)nc21 [Example 24]	–
0.61	CCN1CCC(CCOc2ccc(-c3nc(C#N)nc4c3ncn4C)cc2C(F)(F)F)CC1 [Example 26]	–
0.66	CN1CCC[C@H]1C(=O)N1CCC(CCOc2ccc(-c3nc(C#N)nc4c3ncn4C)cc2C(F)(F)F)CC1 [Example 29]	–
0.85	CN1CCC[C@H]1C(=O)N1CCC(CCOc2ncc(-c3nc(C#N)nc4c3ncn4C)cc2C(F)(F)F)CC1 [Example 40]	–
0.76	CCN1CCC(CCOc2ccc(-c3nc(C#N)nc4c3ncn4CC3CCOC3)cc2C(F)(F)F)CC1 (stereo not drawn) [Example 70]	–
0.73	CN(C)C(=O)CN1CCC(CCOc2ccc(-c3nc(C#N)nc4c3ncn4C)cc2C(F)(F)F)CC1 [Example 72]	–
0.87	Cn1cnc2c(-c3ccc(OCCC4CCN(CC(=O)N5CC[C@H](F)C5)CC4)c(C(F)(F)F)c3)nc(C#N)nc21 [Example 122]	–
0.89	Cn1ccc2c(-c3cnc(OCC4CCN(C(=O)C5CCN(CC(C)(C)O)CC5)CC4)c(C(F)(F)F)c3)nc(C#N)nc21 [Example 135, 4-{6-[(1-{[1-(2-hydroxy-2-methylpropyl)piperidin-4-yl]carbonyl}piperidin-4-yl)methoxy]-5-(trifluoromethyl)pyridin-3-yl}-7-methyl-7H-pyrrolo[2,3-d]pyrimidine-2-carbonitrile]	–
0.65	Cn1cnc2c(-c3cnc(OCCC4CCN(C5CCC5)CC4)c(C(F)(F)F)c3)nc(C#N)nc21 [Example 141]	–
0.62	CN1CCC[C@@H]1C(=O)N1CC[C@@H](OCCOc2ncc(-c3nc(C#N)nc4c3ccn4C)cc2C(F)(F)F)C1 [Example 158]	inhibition rate of ΔMFI (increased expression of MHC class II in peripheral blood B cells) [2]: 59±1.5%
